Details in all cases: stereoisomer not certain
A short description of data set [1]: RP, Waters ACQUITY UPLC BEH C18, 100 × 2.1 mm, 1.7 µm, 0.2 mL/min, estimated dead time 1.1 min; A: water + 0.1% formic acid, pH 3; B: methanol + 0.1% formic acid, pH 3; gradient (min/%B) 0/5 5/5 25/100 30/100 30.1/5 35/5.
The nature of data set [2]: RP, Waters CORTECS T3, 100 × 2.1 mm, 2.7 µm, 0.2 mL/min, estimated dead time 1.1 min; A: water + 0.1% formic acid, pH 3; B: methanol + 0.1% formic acid, pH 3; gradient (min/%B) 0/0 1/0 6/5 30/100 35/100 35.1/0 40/0.
Data set [3] is described as follows: RP, Waters CORTECS T3, 100 × 2.1 mm, 2.7 µm, 0.2 mL/min, estimated dead time 1.1 min; A: water + 0.1% formic acid, pH 3; B: methanol + 0.1% formic acid, pH 3; gradient (min/%B) 0/5 5/5 25/95 25.1/100 35/100 35.1/5 45/5.
Data set [4] is described as follows: RP, Waters ACQUITY UPLC BEH C18, 100 × 2.1 mm, 1.7 µm, 0.1 mL/min, estimated dead time 2.2 min; A: water + 0.1% formic acid, pH 3; B: methanol + 0.1% formic acid, pH 3; gradient (min/%B) 0/5 5/5 25/95 25.1/100 35/100 35.1/5 45/5.
Data set [5] is described as follows: RP, Waters CORTECS T3, 100 × 2.1 mm, 2.7 µm, 0.3 mL/min, estimated dead time 0.73 min; A: water + 0.1% formic acid, pH 3; B: methanol + 0.1% formic acid, pH 3; gradient (min/%B) 0/0 5/0 25/100 30/100 30.1/0 35/0.
Data set [6] is described as follows: RP, Waters ACQUITY UPLC BEH C18, 100 × 2.1 mm, 1.7 µm, 0.1 mL/min, estimated dead time 2.2 min; A: water + 0.1% formic acid, pH 3; B: methanol + 0.1% formic acid, pH 3; gradient (min/%B) 0/5 5/5 25/95 25.1/100 35/100 35.1/5 45/5. This is another data set of the same source.
Data set [7] in a line: RP, Waters ACQUITY UPLC BEH C18, 100 × 2.1 mm, 1.7 µm, 0.1 mL/min, estimated dead time 2.2 min; A: water + 0.1% formic acid, pH 3; B: methanol + 0.1% formic acid, pH 3; gradient (min/%B) 0/5 5/5 25/100 30/100 30.1/5 35/5.
A short description of data set [8]: RP, Waters CORTECS T3, 100 × 2.1 mm, 2.7 µm, 0.3 mL/min, estimated dead time 0.73 min; A: water + 0.1% formic acid, pH 3; B: methanol + 0.1% formic acid, pH 3; gradient (min/%B) 0/0 1/0 6/5 30/100 35/100 35.1/0 40/0.
Data set [9] can be described thus: HILIC, Merck SeQuant ZIC-HILIC, 150 × 2.1 mm, 5 µm, 0.75 mL/min, estimated dead time 0.44 min; A: water + 0.1% acetic acid + 10 mM ammonium acetate, pH 4; B: 5% water + 95% acetonitrile + 0.1% acetic acid + 10 mM ammonium acetate, pH 4; gradient (min/%B) 0/95 5/95 20/57 25/57 30/95 40/95.
Data set [10] is described as follows: RP, Waters CORTECS T3, 100 × 2.1 mm, 2.7 µm, 0.1 mL/min, estimated dead time 2.2 min; A: water + 0.1% formic acid, pH 3; B: methanol + 0.1% formic acid, pH 3; gradient (min/%B) 0/5 5/5 25/95 25.1/100 35/100 35.1/5 45/5.
Data set [11] is described as follows: RP, Waters CORTECS T3, 100 × 2.1 mm, 2.7 µm, 0.25 mL/min, estimated dead time 0.88 min; A: water + 0.1% formic acid, pH 3; B: methanol + 0.1% formic acid, pH 3; gradient (min/%B) 0/5 5/5 25/95 25.1/100 35/100 35.1/5 45/5.
Data set [12] in a line: HILIC, Thermo Scientific Accucore HILIC, 100 × 2.1 mm, 2.6 µm, 0.5 mL/min, estimated dead time 0.44 min; A: water + 0.1% formic acid + 10 mM ammonium formate, pH 3; B: 5% water + 95% acetonitrile + 0.1% formic acid + 10 mM ammonium formate, pH 3; gradient (min/%B) 0/95 5/95 20/57 25/57 30/95 40/95.
The nature of data set [13]: RP, Waters ACQUITY UPLC BEH C18, 100 × 2.1 mm, 1.7 µm, 0.2 mL/min, estimated dead time 1.1 min; A: water + 0.025% formic acid + 20 mM ammonium acetate + 0.055% ammonium hydroxide, pH 7; B: methanol; gradient (min/%B) 0/5 5/5 25/100 30/100 30.1/5 35/5.
Data set [14] is described as follows: RP, Waters ACQUITY UPLC BEH C18, 100 × 2.1 mm, 1.7 µm, 0.1 mL/min, estimated dead time 2.2 min; A: water + 0.1% formic acid, pH 3; B: methanol + 0.1% formic acid, pH 3; gradient (min/%B) 0/5 5/5 25/95 25.1/100 35/100 35.1/5 45/5. The source holds these as a separate data set.
Data set [15] is described as follows: HILIC, Merck SeQuant ZIC-HILIC, 150 × 2.1 mm, 5 µm, 0.75 mL/min, estimated dead time 0.44 min; A: water + 10 mM ammonium formate, pH 6; B: 5% water + 95% acetonitrile + 10 mM ammonium formate, pH 6; gradient (min/%B) 0/95 5/95 20/57 25/57 30/95 40/95.
The nature of data set [16]: RP, Waters CORTECS T3, 100 × 2.1 mm, 2.7 µm, 0.3 mL/min, estimated dead time 0.73 min; A: water + 0.1% formic acid, pH 3; B: methanol + 0.1% formic acid, pH 3; gradient (min/%B) 0/5 5/5 25/100 30/100 30.1/5 35/5.
Data set [17] is described as follows: RP, Waters CORTECS T3, 100 × 2.1 mm, 2.7 µm, 0.3 mL/min, estimated dead time 0.73 min; A: water + 0.1% formic acid, pH 3; B: methanol + 0.1% formic acid, pH 3; gradient (min/%B) 0/5 5/5 25/95 25.1/100 35/100 35.1/5 45/5.
A short description of data set [18]: RP, Waters CORTECS T3, 100 × 2.1 mm, 2.7 µm, 0.15 mL/min, estimated dead time 1.5 min; A: water + 0.1% formic acid, pH 3; B: methanol + 0.1% formic acid, pH 3; gradient (min/%B) 0/5 5/5 25/95 25.1/100 35/100 35.1/5 45/5.
Data set [19] can be described thus: RP, Thermo Scientific Hypercarb, 150 × 2.1 mm, 5 µm, 0.1 mL/min, estimated dead time 3.3 min; A: water + 0.1% formic acid, pH 3; B: methanol + 0.1% formic acid, pH 3; gradient (min/%B) 0/5 5/5 20/100 35/100 35.1/5 45/5.
A short description of data set [20]: HILIC, Waters XBridge BEH Amide, 100 × 2.1 mm, 2.5 µm, 0.5 mL/min, estimated dead time 0.44 min; A: water + 0.1% acetic acid + 10 mM ammonium acetate, pH 4; B: 5% water + 95% acetonitrile + 0.1% acetic acid + 10 mM ammonium acetate, pH 4; gradient (min/%B) 0/95 5/95 20/57 25/57 30/95 40/95.
The nature of data set [21]: RP, Waters CORTECS T3, 100 × 2.1 mm, 2.7 µm, 0.2 mL/min, estimated dead time 1.1 min; A: water + 0.045% formic acid + 0.11% ammonium hydroxide, pH 7; B: methanol; gradient (min/%B) 0/5 5/5 25/95 25.1/100 35/100 35.1/5 45/5.
Data set [22] is described as follows: RP, Waters ACQUITY UPLC BEH C18, 100 × 2.1 mm, 1.7 µm, 0.2 mL/min, estimated dead time 1.1 min; A: water + 0.025% formic acid + 20 mM ammonium acetate + 0.055% ammonium hydroxide, pH 7; B: methanol; gradient (min/%B) 0/5 5/5 25/100 30/100 30.1/5 35/5. The source holds these as a separate data set.

Regarding `O=c1[nH]c(=O)c2[nH]c(=O)[nH]c2[nH]1` [URATE], the LC retention time was 1.38 min in data set [1]; 1.38 min in data set [2]; 2.72 min in data set [3]; 2.7 min in data set [4]; 0.93 min in [5]; 2.72 min in data set [6]. Moreover, the LC retention time was 2.74 min in data set [7]; 0.92 min in [8]; 11.6 min in data set [9]; 2.66 min in [10]; 1.08 min in data set [11]; 8.77 min in [12]. The LC retention time is 1.36 min in [13]; 2.66 min in data set [14]; 12.3 min in data set [15]; 0.93 min in data set [16]; 0.9 min in data set [17]; 1.78 min in data set [18].

Turning to `c1ncc2[nH]cnc2n1` [PURINE], the LC retention time in data set [1] was 2.36 min; in [2] it was 3.64 min; in data set [3] it was 6.98 min; in data set [4], 4.65 min; in data set [19], 35.3 min; in [5], 2.61 min. Moreover, the LC retention time was 2.69 min in data set [6]; 2.6 min in data set [8]; 1.25 min in [9]; 1.59 min in data set [20]; 1.99 min in [11]; 3.15 min in data set [21]. Also, the LC retention time in data set [12] is 1.41 min; in data set [13], 1.74 min; in data set [14] it was 4.62 min; in [15], 1.31 min; in data set [18], 3.26 min; in [22], 3.15 min.

The values above are taken from the RepoRT retention time repository (doi:10.1016/j.jchromb.2020.122105).
